Usually EC50 stands for the concentration that produces a half-maximal response.

Common to all, as to format: cell-based
Test [1] relates to PD1-ss+10aa/Gaussia Luciferase. Nature of the test: Dox-Induced PD1-ss-Gluc Assay. Conditions: 293FRT/TO cells, read-out: 24 hr Dox Inducible PD1ssGluc 293FRT/TO: Mean IC50. Here is the method:
(§1) Transfected cells were selected for resistance to the selectable markers Hygromycin and Blasticidin to create a stable cell line that contained the PD1-ss+10aa/Gaussia Luciferase cDNA insert whose expression was regulated under the T-REx™ system. The day before assay, cells were trypsinized and plated in 384-well tissue culture plates. The next day, compound dilutions in DMSO/media containing doxycycline were added to the wells and incubated at 37° C., 5% CO2.
(§2) For chemical structures that include one or more stereoisomers, but are illustrated without indicating stereochemistry, the assay data refers to a mixture of stereoisomers.

Test [2] deals with TNFα-FL/Gaussia Luciferase. Nature of the test: Dox Induced TNFα-FL-Gluc Assay. To be noted: 293FRT/TO cells, read-out: 24 hr Dox Inducible TNFaFLGluc 293FRT/TO: Mean IC50. Here is the method:
as §1, with “TNFα-FL/Gaussia” for “PD1-ss+10aa/Gaussia”, “T-RExTM” for “T-REx™”, “CO2. […] For chemical structures that include one or more stereoisomers, but are illustrated without indicating stereochemistry, the assay data refers to a mixture of stereoisomers.” for “CO2.”

Test [3] relates to HER3-ss+4aa/Gaussia Luciferase. The experiment in a line: Dox-Induced Her3-ss-Gluc Assay. Conditions: 293FRT/TO cells, read-out: 24 hr Dox Inducible Her3(ss + 4)Gluc 293FRT/TO: Mean IC50. Here is the method: Transfected cells were selected for resistance to the selectable markers Hygromycin and Blasticidin to create a stable cell line that contained the HER3-ss+4aa/Gaussia Luciferase cDNA insert whose expression was regulated under the T-REx™ system. The day before assay, cells were trypsinized and plated in 384-well tissue culture plates. The next day, compound dilutions in DMSO/media containing doxycycline were added to the wells and incubated at 37° C., 5% CO2.
as §2

Test [4] has as its system IL-2-FL/Gaussia Luciferase. Nature of the test: Dox Induced IL2-FL-Gluc Assay. To be noted: 293FRT/TO cells, read-out: 24 hr Dox Inducible IL2FLGIuc 293FRT/TO: Mean IC50. On the procedure: as §1, with “IL-2-FL/Gaussia” for “PD1-ss+10aa/Gaussia”, “T-RExTM” for “T-REx™”, “CO2. […] For chemical structures that include one or more stereoisomers, but are illustrated without indicating stereochemistry, the assay data refers to a mixture of stereoisomers.” for “CO2.”

For test [5], the system named is human multiple myeloma cell line NCI-H929. The experiment in a line: H929 Cell Viability Assay. Conditions: read-out: 48 hr H929 Viability Celltiter-Glo: Mean EC50. Here is the method:
Plates were incubated at 37° C., 5% CO2 for 48 hours. After 48 hours, Celltiter-Glo® (Promega) was added to each well and luciferase signal was quantified using Tecan Infinite M1000 Pro for cell viability determination.
as §2
(ATP-based viability assays read luminescence as a measure of living cells.)

Test [6] concerns human multiple myeloma cell line U266B1. The experiment in a line: U266 Cell Viability Assay. Conditions: read-out: 48 hr U266 Viability Celltiter-Glo: Mean EC50. Here is the method:
Cells were plated in 384-well tissue culture plates and treated with compound dilutions in DMSO/media. Plates were incubated at 37° C., 5% CO2 for 48 hours. After 48 hours, Celltiter-Glo® (Promega) was added to each well and luciferase signal was quantified using Tecan Infinite M1000 Pro for cell viability determination.
as §2

Setting [7] is: 24 hr doxycycline induction, Gaussia luciferase signal.
The mark [8] stands for this setting: 48 hr, NCI-H929 cells, Celltiter-Glo.
The mark [9] stands for this setting: U-266, 48 hr, U266B1 cells, Celltiter-Glo.

Read-outs that look alike come from different tables or passages of the source.

Regarding `O=C(Nc1nc([C@@H]2CC[C@@H](c3ccccc3)C2)cs1)c1cccn1Cc1ccncc1` (stereo in doubt) [Compound A292, N-(4-((1R,3R)-3-phenylcyclopentyl)thiazol-2-yl)-1-(pyridin-4-ylmethyl)-1H-pyrrole-2-carboxamide], the IC50 in test [1] (setting [7]) was 0.211 µM; in test [2] (setting [7]), 2.51 µM; in test [3] (setting [7]), 0.471 µM; in test [4] (setting [7]), 0.835 µM. The results for the EC50 in test [5] (setting [8]) and in test [6] (setting [9]) were 19 µM and greater than 25 µM, respectively.

As to `O=C(Nc1nc([C@H]2CC[C@@H](c3ccccc3)C2)cs1)c1cccn1Cc1ccncc1` (stereo in doubt) [Compound A305, N-(4-((1S,3R)-3-phenylcyclopentyl)thiazol-2-yl)-1-(pyridin-4-ylmethyl)-1H-pyrrole-2-carboxamide], the IC50 in test [1] (24 hr, doxycycline-induced) came to 0.196 µM; in test [2] (24 hr, doxycycline-induced) it was 2.18 µM; in test [3] (24 hr, doxycycline-induced) it was 0.414 µM; in test [4] (24 hr, doxycycline-induced) it was 0.657 µM. The EC50 was 12.4 µM in test [5] (setting [8]) and greater than 25 µM in test [6] (setting [9]).

Take `C[C@H](OC(C)(C)c1csc(NC(=O)c2cccn2Cc2ccncc2)n1)c1ccccc1` [Compound A1, (S)-N-(4-(2-(1-phenylethoxy)propan-2-yl)thiazol-2-yl)-1-(pyridin-4-ylmethyl)-1H-pyrrole-2-carboxamide]: the IC50 came out at 0.024 µM in test [1] (setting [7]), 0.401 µM in test [2] (setting [7]), 0.055 µM in test [3] (setting [7]) and 0.093 µM in test [4] (setting [7]). Moreover, the concentration giving a half-maximal response (EC50) is 1.88 µM in test [5] (setting [8]) and greater than 25 µM in test [6] (setting [9]).

As for `CC(OC(C)(C)c1csc(NC(=O)c2cccn2Cc2ccncc2)n1)c1cccc(Cl)c1` (stereo not drawn) [Compound A2, N-(4-(2-(1-(3-chlorophenyl)ethoxy)propan-2-yl)thiazol-2-yl)-1-(pyridin-4-ylmethyl)-1H-pyrrole-2-carboxamide], the IC50 in test [1] (setting [7]) worked out at 0.029 µM; in test [2] (setting [7]) it was 0.391 µM; in test [3] (setting [7]), 0.062 µM; in test [4] (setting [7]), 0.105 µM. In addition, the concentration for a half-maximal effect (EC50) was 1.61 µM in test [5] (setting [8]) and 22.3 µM in test [6] (setting [9]).

With `CC(OC(C)(C)c1csc(NC(=O)c2cccn2Cc2ccncc2)n1)c1ccccc1` (stereo not drawn) [Compound A3, N-(4-(2-(1-phenylethoxy)propan-2-yl)thiazol-2-yl)-1-(pyridin-4-ylmethyl)-1H-pyrrole-2-carboxamide], the IC50 turned out to be 0.036 µM in test [1] (setting [7]), 0.58 µM in test [2] (setting [7]), 0.099 µM in test [3] (setting [7]) and 0.144 µM in test [4] (setting [7]). Further, the EC50 in test [5] (setting [8]) was 2.91 µM; in test [6] (setting [9]), greater than 25 µM.

As for `COc1cccc(C(C)OC(C)(C)c2csc(NC(=O)c3cccn3Cc3ccncc3)n2)c1` (stereo not drawn) [Compound A4, N-(4-(2-(1-(3-methoxyphenyl)ethoxy)propan-2-yl)thiazol-2-yl)-1-(pyridin-4-ylmethyl)-1H-pyrrole-2-carboxamide], the IC50 in test [1] (setting [7]) is 0.038 µM; in test [2] (setting [7]), 0.377 µM; in test [3] (setting [7]), 0.091 µM; in test [4] (setting [7]) it was 0.148 µM. For the same compound, the values for the EC50 in test [5] (setting [8]) and in test [6] (setting [9]) were 2.77 µM and greater than 25 µM, respectively.

On to `CC(OC(C)(C)c1csc(NC(=O)c2cccn2Cc2ccncc2)n1)c1ccc(Cl)cc1` (stereo not drawn) [Compound A5, N-(4-(2-(1-(4-chlorophenyl)ethoxy)propan-2-yl)thiazol-2-yl)-1-(pyridin-4-ylmethyl)-1H-pyrrole-2-carboxamide], for which the IC50 in test [1] (setting [7]) came out at 0.043 µM; in test [2] (setting [7]) it was 0.81 µM; in test [3] (setting [7]), 0.102 µM; in test [4] (setting [7]), 0.145 µM. The EC50 in test [5] (setting [8]) amounted to 2.44 µM; in test [6] (setting [9]), 23.9 µM.

`C[C@H](OC(C)(C)c1csc(NC(=O)c2cccn2CCCc2ccncc2)n1)c1ccccc1` [Compound A6, (S)-N-(4-(2-(1-phenylethoxy)propan-2-yl)thiazol-2-yl)-1-(3-(pyridin-4-yl)propyl)-1H-pyrrole-2-carboxamide]: the IC50 was 0.046 µM in test [1] (setting [7]), 0.541 µM in test [2] (setting [7]), 0.088 µM in test [3] (setting [7]) and 0.078 µM in test [4] (setting [7]). In addition, the EC50 in test [5] (setting [8]) is 2.17 µM; in test [6] (setting [9]), 6.23 µM.

As to `CC(C)(OCC1CCCCC1)c1csc(NC(=O)c2cccn2Cc2ccncc2)n1` [Compound A7, N-(4-(2-(cyclohexylmethoxy)propan-2-yl)thiazol-2-yl)-1-(pyridin-4-ylmethyl)-1H-pyrrole-2-carboxamide], the IC50 was found to be 0.058 µM in test [1] (setting [7]), 0.808 µM in test [2] (setting [7]), 0.093 µM in test [3] (setting [7]) and 0.071 µM in test [4] (setting [7]). For the same compound, the values for the EC50 in test [5] (setting [8]) and in test [6] (setting [9]) were 3.85 µM and greater than 25 µM, respectively.

Take `CC(OC(C)(C)c1csc(NC(=O)c2cccn2Cc2ccncc2)n1)c1ccccc1Cl` (stereo not drawn) [Compound A8, N-(4-(2-(1-(2-chlorophenyl)ethoxy)propan-2-yl)thiazol-2-yl)-1-(pyridin-4-ylmethyl)-1H-pyrrole-2-carboxamide]: the IC50 in test [1] (setting [7]) came out at 0.058 µM; in test [2] (setting [7]), 0.42 µM; in test [3] (setting [7]), 0.174 µM; in test [4] (setting [7]) it was 0.165 µM. For the same compound, the EC50 in test [5] (setting [8]) stood at 3.89 µM; in test [6] (setting [9]), 7.87 µM.

Turning to `CC(C)(OCc1ccccc1)c1csc(NC(=O)c2cccn2Cc2ccncc2)n1` [Compound A9, N-(4-(2-(benzyloxy)propan-2-yl)thiazol-2-yl)-1-(pyridin-4-ylmethyl)-1H-pyrrole-2-carboxamide], the IC50 in test [1] (setting [7]) was determined as 0.104 µM; in test [2] (setting [7]) it was 1.62 µM; in test [3] (setting [7]), 0.202 µM; in test [4] (setting [7]) it was 0.197 µM. Also, the EC50 was 9.46 µM in test [5] (setting [8]) and greater than 25 µM in test [6] (setting [9]).

Turning to `CC(C)OC(C)(C)c1csc(NC(=O)[C@@H]2CCCN2Cc2ccncc2)n1` [Compound A130, (S)-N-(4-(2-isopropoxypropan-2-yl)thiazol-2-yl)-1-(pyridin-4-ylmethyl)pyrrolidine-2-carboxamide], the IC50 in test [1] (setting [7]), in test [2] (setting [7]), in test [3] (setting [7]) and in test [4] (setting [7]) was greater than 25 µM throughout. Also, in test [5] (setting [8]), the EC50 is greater than 25 µM.

With `CC(C)(C)c1csc(NC(=O)c2cc3cc(Cl)ccc3n2Cc2ccncc2)n1` [Compound B28, N-(4-(tert-butyl)thiazol-2-yl)-5-chloro-1-(pyridin-4-ylmethyl)-1H-indole-2-carboxamide], the IC50 in test [1] (24 hr, doxycycline-induced) was greater than 25 µM; in test [2] (24 hr, doxycycline-induced), greater than 25 µM; in test [4] (24 hr, doxycycline-induced), greater than 25 µM. Also, the EC50 in test [5] (NCI-H929, 48 h) is 23.4 µM; in test [6] (U-266, 48 h), greater than 25 µM.

Consider `CCc1nc(NC(=O)c2cc3cc(Cl)ccc3n2Cc2ccncc2)sc1C` [Compound B29, 5-chloro-N-(4-ethyl-5-methylthiazol-2-yl)-1-(pyridin-4-ylmethyl)-1H-indole-2-carboxamide], for which the IC50 in test [1] (24 hr, doxycycline-induced) is greater than 25 µM; in test [2] (24 hr, doxycycline-induced) it was greater than 25 µM; in test [4] (24 hr, doxycycline-induced), greater than 25 µM. The EC50 in test [5] (NCI-H929, 48 h) was greater than 25 µM; in test [6] (U-266, 48 h) it was greater than 25 µM.
